In assay [1] the target is T7 RNA Polymerase (Escherichia phage T7, UniProt P00573). Nature of the assay: Detection of the efficiency of mRNA capping synthesis (in vitro transcription, product yield). It is filed as biochemical. The note with it: 20 µL mRNA synthesis reaction system. The method, then: • 1) The plasmids were linearized and the DNA templates were purified. • 2) The mRNA was synthesized by in vitro transcription, using the capping structure prepared in the present disclosure, positive control CleanCap®AG (3'OMe) (Trilink, N-7413), negative control (uncapped mRNA) and blank control (DNase/RNase-Free water), respectively. Reaction system
T7 RNA Polymerase, sequence (P00573 whole entry): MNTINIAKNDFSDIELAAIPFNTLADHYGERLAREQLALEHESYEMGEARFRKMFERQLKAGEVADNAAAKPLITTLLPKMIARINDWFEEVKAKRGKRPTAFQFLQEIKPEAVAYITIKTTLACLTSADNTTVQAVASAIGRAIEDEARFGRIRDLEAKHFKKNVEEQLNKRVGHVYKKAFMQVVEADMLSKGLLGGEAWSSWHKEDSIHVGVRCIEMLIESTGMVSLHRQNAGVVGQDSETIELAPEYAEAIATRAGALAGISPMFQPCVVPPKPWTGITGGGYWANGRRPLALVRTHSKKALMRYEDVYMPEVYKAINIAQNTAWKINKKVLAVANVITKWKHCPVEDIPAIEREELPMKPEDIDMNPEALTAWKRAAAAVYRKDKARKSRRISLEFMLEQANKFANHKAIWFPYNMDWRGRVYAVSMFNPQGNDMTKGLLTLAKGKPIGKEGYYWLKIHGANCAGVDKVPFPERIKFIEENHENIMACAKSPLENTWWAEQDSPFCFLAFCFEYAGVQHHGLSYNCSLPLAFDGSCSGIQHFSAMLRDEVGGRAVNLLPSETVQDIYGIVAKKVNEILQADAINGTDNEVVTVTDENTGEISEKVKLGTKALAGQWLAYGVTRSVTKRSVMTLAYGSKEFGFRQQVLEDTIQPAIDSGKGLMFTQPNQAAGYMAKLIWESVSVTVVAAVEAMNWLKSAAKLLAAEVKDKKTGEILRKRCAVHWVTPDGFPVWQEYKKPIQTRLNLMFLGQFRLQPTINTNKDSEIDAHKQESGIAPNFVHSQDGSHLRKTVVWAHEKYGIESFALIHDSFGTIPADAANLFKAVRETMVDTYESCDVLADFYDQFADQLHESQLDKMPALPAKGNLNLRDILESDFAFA
The reaction was carried out at 37°C for 2 to 3 h. TURBO DNase digestion was carried out for 15 min. The mRNA was precipitated by LiCl for 30 min or more or overnight, and the mRNA precipitate was washed with 75% ethanol, dried briefly to evaporate the ethanol, and the mRNA was redissolved with RNase-Free water.
In the reaction system listed in Table 1, since the solubility of different test compounds varies in different solutions, adjustments can be made as needed. For ease of operation, the commonly used concentrations are 10 mM and 100 mM. […] If the initial concentration of the test compound is 10 mM, the dosage is 8 µL. Regardless of the initial concentration, the dosages of different test compounds were the same, and the final concentrations were also the same.
For example, when testing compounds S17 and S19, their initial concentration was 10 mM, and the addition volume was 8 µL. When testing compounds 5 and 6, their initial concentration was 100 mM, and the addition volume was 0.8 µL.
The assay was performed according to the method described in Example 20.

Assay [2] concerns HEK293T cells. Nature of the assay: Expression efficiency of capped luciferase mRNAs in HEK293T cells. The assay is classed as cell-based. The note with it: 6 h after transfection of capped luciferase mRNA. The method, then:
• 1) HNE293T cells were cultured in DMEM medium containing 10% FBS and penicillin/streptomycin at 37°C and 5% CO2. • 2) The cultured HEK293T cells were spread in a 96-well plate with 1.25 × 10^4 cells per well. • 3) After the cells completely adhered to the wall, 0.5 µg of a mixture of mRNA sample and Polyplus jet[…] was added to each well of cells, and cultured at 37°C and 5% CO2 for 6 h. • 4) The growth medium was removed from the cells to be tested and the cells were rinsed with PBS. After centrifugation to remove PBS, 50 µL of 1x lysis buffer was added thereto, and cells and all liquid were transferred to a microcentrifuge tube, and then centrifuged at 12000 x g at 4°C for 2 min. • 5) The supernatant was transferred to a new tube. Fluorescence readings were detected using the ONE-Glo Luciferase Assay System Kit.
All test compounds, N-7413, negative control and blank control were tested under the same conditions, and some experimental results in the test results are shown in Table 3. Table 3. Relative fluorescence readings for capped mRNAs
The assay was performed according to the method described in Example 21. All test compounds, N-7413, negative control and blank control were tested under the same conditions, and some experimental results in the test results are shown in Table 5. Table 5 Relative fluorescence readings for capped mRNAs

[3] abbreviates: test compound 4 mM, 37°C 2 to 3 h (Table 2).
Where [4] appears, read: 0.5 µg per well, reading of N-7413 = 1 (Table 3).
[5] abbreviates: reading of N-7413 = 1 (Table 5).

The compound `COCCOCCOCC(=O)NC[C@H]1[C@@H](O)[C@H](n2c[n+](C)c3c(=O)[nH]c(N)nc32)O[C@@H]1COP(=O)([O-])OP(=O)(O)OP(=O)(O)OC[C@H]1O[C@@H](n2cnc3c(N)ncnc32)[C@H](OC)[C@@H]1OP(=O)(O)OC[C@H]1O[C@@H](n2cnc3c(=O)[nH]c(N)nc32)[C@H](O)[C@@H]1O` [Compound 5] showed a Final product mass in assay [1] (setting [3]) of 180 µg. In assay [2] (setting [4]), this compound returned a Relative fluorescence reading of 1.86.
Consider `COCCOCCOCCOCCOCC(=O)NC[C@H]1[C@@H](O)[C@H](n2c[n+](C)c3c(=O)[nH]c(N)nc32)O[C@@H]1COP(=O)([O-])OP(=O)(O)OP(=O)(O)OC[C@H]1O[C@@H](n2cnc3c(N)ncnc32)[C@H](OC)[C@@H]1OP(=O)(O)OC[C@H]1O[C@@H](n2cnc3c(=O)[nH]c(N)nc32)[C@H](O)[C@@H]1O` [Compound 6], for which, in assay [1] (setting [3]), the Final product mass is reported as 117 µg. This compound showed a Relative fluorescence reading in assay [2] (setting [4]) of 1.90.
As for `COC[C@]1(F)[C@@H](COP(=O)(O)OP(=O)(O)OP(=O)(O)OC[C@H]2O[C@@H](n3cnc4c(N)ncnc43)[C@H](OC)[C@@H]2OP(=O)([O-])OC[C@H]2O[C@@H](n3cnc4c(=O)[nH]c(N)nc43)[C@H](O)[C@@H]2O)O[C@@H](n2c[n+](C)c3c(=O)[nH]c(N)nc32)[C@@H]1O` [Compound D1], the Relative fluorescence reading in assay [2] (setting [5]) is reported as 2.07.
Take `COC1C(OP(=O)([O-])OCC2OC(n3cnc4c(=O)[nH]c(N)nc43)C(O)C2O)C(COP(=O)(O)OP(=O)(O)OP(=O)(O)OCC2OC(n3c[n+](C)c4c(=O)[nH]c(N)nc43)C(O)C2(F)CN=[N+]=[N-])OC1n1cnc2c(N)ncnc21` (centres unmarked) [Compound D20]: the Final product mass in assay [1] (method of Example 20 (Table 4)) amounted to 113 µg. The compound also had a Relative fluorescence reading in assay [2] (setting [5]) of 1.23.
Compound `COCC1(F)C(COP(=O)(O)CP(=O)(O)OP(=O)(O)OCC2OC(n3cnc4c(N)ncnc43)C(OC)C2OP(=O)([O-])OCC2OC(n3cnc4c(=O)[nH]c(N)nc43)C(O)C2O)OC(n2c[n+](C)c3c(=O)[nH]c(N)nc32)C1O` (centres unmarked) [Compound D23] showed a Final product mass in assay [1] (method of Example 20 (Table 4)) of 96 µg. This compound yielded a Relative fluorescence reading in assay [2] (setting [5]) of 0.93.
`COCC1(F)C(COP(=O)(O)OP(=O)(O)CP(=O)(O)OCC2OC(n3cnc4c(N)ncnc43)C(OC)C2OP(=O)([O-])OCC2OC(n3cnc4c(=O)[nH]c(N)nc43)C(O)C2O)OC(n2c[n+](C)c3c(=O)[nH]c(N)nc32)C1O` (centres unmarked) [Compound D24] displayed a Final product mass in assay [1] (method of Example 20 (Table 4)) of 83 µg. This compound showed a Relative fluorescence reading in assay [2] (setting [5]) of 1.08.
In turn, `COCC1(F)C(COP(=O)(O)OP(=O)(O)OP(=O)(O)OP(=O)(O)OCC2OC(n3cnc4c(N)ncnc43)C(OC)C2OP(=O)([O-])OCC2OC(n3cnc4c(=O)[nH]c(N)nc43)C(O)C2O)OC(n2c[n+](C)c3c(=O)[nH]c(N)nc32)C1O` (centres unmarked) [Compound D28] yielded a Final product mass in assay [1] (method of Example 20 (Table 4)) of 92 µg. The same compound registered a Relative fluorescence reading in assay [2] (setting [5]) of 1.12.
For `CO[C@@H]1[C@H](OP(=O)([O-])OC[C@H]2O[C@@H](n3cnc4c(=O)[nH]c(N)nc43)[C@H](O)[C@@H]2O)[C@@H](COP(=O)(O)OP(=O)(O)OP(=O)(O)OC[C@H]2O[C@@H](n3c[n+](C)c4c(=O)[nH]c(N)nc43)[C@H](O)[C@]2(F)CNC(C)=O)O[C@H]1n1cnc2c(N)ncnc21` [Compound D31] the same measures were 133 µg and 1.73.
The compound `CO[C@@H]1[C@H](OP(=O)([O-])OC[C@H]2O[C@@H](n3cnc4c(=O)[nH]c(N)nc43)[C@H](O)[C@@H]2O)[C@@H](COP(=O)(O)OP(=O)(O)OP(=O)(O)OC[C@H]2O[C@@H](n3c[n+](C)c4c(=O)[nH]c(N)nc43)[C@H](O)[C@]2(F)C(=O)N(C)C)O[C@H]1n1cnc2c(N)ncnc21` [Compound D82] came in with a Final product mass in assay [1] (method of Example 20 (Table 4)) of 146 µg. In addition, in assay [2] (setting [5]), the Relative fluorescence reading amounted to 1.63.
The like results for `COC1C(OP(=O)([O-])OCC2OC(n3cnc4c(=O)[nH]c(N)nc43)C(O)C2O)C(COP(=O)(O)OP(=O)(O)OP(=O)(O)OCC2OC(n3c[n+](C)c4c(=O)[nH]c(N)nc43)C(O)C2(C)F)OC1n1cnc2c(N)ncnc21` (centres unmarked) [Compound D85] were, in that order, 120 µg and 1.6.
In assay [1] (method of Example 20 (Table 4)), `COCC1(N=[N+]=[N-])C(COP(=O)(O)OP(=O)(O)OP(=O)(O)OCC2OC(n3cnc4c(N)ncnc43)C(OC)C2OP(=O)([O-])OCC2OC(n3cnc4c(=O)[nH]c(N)nc43)C(O)C2O)OC(n2c[n+](C)c3c(=O)[nH]c(N)nc32)C1O` (centres unmarked) [Compound D86] had a Final product mass of 111 µg. For the same compound, the Relative fluorescence reading in assay [2] (setting [5]) is 1.35.
In assay [1] (method of Example 20 (Table 4)), `CNc1nc2c(c(=O)[nH]1)[n+](C)cn2[C@@H]1O[C@H](COP(=O)(O)OP(=O)(O)OP(=O)(O)OC[C@H]2O[C@@H](n3cnc4c(N)ncnc43)[C@H](OC)[C@@H]2OP(=O)([O-])OC[C@H]2O[C@@H](n3cnc4c(=O)[nH]c(N)nc43)[C@H](O)[C@@H]2O)[C@@](F)(COC)[C@H]1O` [Compound D87] returned a Final product mass of 98 µg. This compound gave a Relative fluorescence reading in assay [2] (setting [5]) of 1.55.
For `COCC1(F)C(COP(=O)(O)OP(=O)(O)OP(=O)(O)OCC2OC(n3cnc4c(N)ncnc43)C(OC)C2OP(=O)([O-])OCC2OC(n3cnc4c(=O)[nH]c(N)nc43)C(O)C2O)OC(n2c[n+](Cc3ccccc3)c3c(=O)[nH]c(N)nc32)C1O` (centres unmarked) [Compound D88] the same measures were 114 µg and 2.04.
In the case of `CC[n+]1cn(C2OC(COP(=O)(O)OP(=O)(O)OP(=O)(O)OCC3OC(n4cnc5c(N)ncnc54)C(OC)C3OP(=O)([O-])OCC3OC(n4cnc5c(=O)[nH]c(N)nc54)C(O)C3O)C(F)(COC)C2O)c2nc(N)[nH]c(=O)c21` (centres unmarked) [Compound D89], the Final product mass in assay [1] (method of Example 20 (Table 4)) amounted to 110 µg. In assay [2] (setting [5]), this compound had a Relative fluorescence reading of 1.52.
The compound `C=CC[n+]1cn(C2OC(COP(=O)(O)OP(=O)(O)OP(=O)(O)OCC3OC(n4cnc5c(N)ncnc54)C(OC)C3OP(=O)([O-])OCC3OC(n4cnc5c(=O)[nH]c(N)nc54)C(O)C3O)C(F)(COC)C2O)c2nc(N)[nH]c(=O)c21` (centres unmarked) [Compound D90] came in with a Final product mass in assay [1] (method of Example 20 (Table 4)) of 100 µg. This compound also showed a Relative fluorescence reading in assay [2] (setting [5]) of 1.44.
For `COCC1(F)C(COP(=O)(O)OP(=O)(O)OP(=O)(O)OCC2OC(n3cnc4c(N)ncnc43)C(OC)C2OP(=O)([O-])OCC2OC(n3cnc4c(=O)[nH]c(N)nc43)C(O)C2O)OC(n2c[n+](Cc3ccc(F)cc3)c3c(=O)[nH]c(N)nc32)C1O` (centres unmarked) [Compound D91] the same measures were 113 µg and 1.93.
As to `COCC1(F)C(COP(=O)(O)OP(=O)(O)OP(=O)(O)OCC2OC(n3cnc4c(N)ncnc43)C(OC)C2OP(=O)([O-])OCC2OC(n3cnc4c(=O)[nH]c(N)nc43)C(O)C2O)OC(n2c[n+](Cc3ccc(Cl)cc3)c3c(=O)[nH]c(N)nc32)C1O` (centres unmarked) [Compound D92], in assay [1] (method of Example 20 (Table 4)), the Final product mass was 109 µg. This compound came in with a Relative fluorescence reading in assay [2] (setting [5]) of 1.78.
For `COCC1(F)C(COP(=O)(O)OP(=O)(O)OP(=O)(O)OCC2OC(n3cnc4c(N)ncnc43)C(OC)C2OP(=O)([O-])OCC2OC(n3cnc4c(=O)[nH]c(N)nc43)C(O)C2O)OC(n2c[n+](Cc3ccc(C)cc3)c3c(=O)[nH]c(N)nc32)C1O` (centres unmarked) [Compound D93] the same measures were 105 µg and 1.95.
For `COCC1(F)C(COP(=O)(O)OP(=O)(O)OP(=O)(O)OCC2OC(n3cnc4c(N)ncnc43)C(OC)C2OP(=O)([O-])OCC2OC(n3cnc4c(=O)[nH]c(N)nc43)C(O)C2O)OC(n2c[n+](Cc3ccc(OC)cc3)c3c(=O)[nH]c(N)nc32)C1O` (centres unmarked) [Compound D94] the same measures were 116 µg and 1.85.
The like results for `CNc1ncnc2c1ncn2C1OC(COP(=O)(O)OP(=O)(O)OP(=O)(O)OCC2OC(n3c[n+](C)c4c(=O)[nH]c(N)nc43)C(O)C2(C)F)C(OP(=O)([O-])OCC2OC(n3cnc4c(=O)[nH]c(N)nc43)C(O)C2O)C1OC` (centres unmarked) [Compound D95] were, in that order, 111 µg and 0.83.
The compound `CNc1ncnc2c1ncn2C1OC(COP(=O)(O)OP(=O)(O)OP(=O)(O)OCC2OC(n3c[n+](C)c4c(=O)[nH]c(N)nc43)C(O)C2(F)COC)C(OP(=O)([O-])OCC2OC(n3cnc4c(=O)[nH]c(N)nc43)C(O)C2O)C1OC` (centres unmarked) [Compound D96] showed a Final product mass in assay [1] (method of Example 20 (Table 4)) of 94 µg. The compound also registered a Relative fluorescence reading in assay [2] (setting [5]) of 2.96.
